Measurements as given in patent publication US11413279B2, “Methods and compositions for the antiviral use of synthetic lysine analogs and mimetics” (priority 2017, dated 2022).
Values joined by “and” are separate entries in the source; they are usually repeats but may differ in a detail not shown here. Equal values may be shown once. Read-outs that look alike come from different tables or passages of the source.

Tests used:
[1] = system: Herpes Simplex Virus Type 1 (HSV-1); assay type: cell-based
Method: (§1) Contact time for each sample was 48±2 hours and Log10 titer reductions were generated using the input viral titer (Log10TCID50) and the output viral titer (Log10TCID50).
The plate was incubated for 48±2 hours at 36±2° C. with 5±3% CO2. The plate was then frozen at −60 to −90° C., thawed, and the contents of each well centrifuged at 2,000 RPM for 10 minutes. The supernatant from each well was collected and assayed for infectious virus.
as §1

[2] = system: Herpes Simplex Virus Type 1 (HSV-1); assay: Antiviral activity of tranexamic acid/L-arginine against HSV-1; assay type: cell-based; conditions: for Output Viral Titer (Log10TCID50) / Titer (Log10TCID50/mL) / Viral Reduction (%) / Viral Promotion (%): contact time 48 ± 8 hours; for Log10 Titer Difference: vs input virus control average 6.39
[3] = system: Herpes Simplex Virus Type 2 (HSV-2); assay: Antiviral activity of tranexamic acid/L-arginine against HSV-2; assay type: cell-based; conditions: contact time 48 ± 8 hours
[4] = system: recurrent outbreaks of cold sores; assay: Topical treatment and prophylactic use in human subjects with recurrent cold sores; assay type: in vivo
[5] = system: Herpes Simplex Virus Type 1 (HSV-1); conditions: contact time 48 ± 8 hours
[6] = system: Herpes Simplex Virus Type 2 (HSV-2); conditions: contact time 48 ± 8 hours
[7] = system: cell medium used for HSV-1 and HSV-2; assay: Cytotoxicity limit in the cell medium used for HSV-1 and HSV-2
[8] = 2% (w/v) tranexamic acid alone, listed as tranexamic acid
[9] = tranexamic acid 0.5% (w/v), high virus inocula
[10] = tranexamic acid 0.5% (w/v), low virus inocula
[11] = tranexamic acid 0.5% (w/v), low virus inocula, listed as tranexamic acid
[12] = tranexamic acid 1.0% (w/v), high virus inocula
[13] = tranexamic acid 1.0% (w/v), high virus inocula, listed as tranexamic acid
[14] = tranexamic acid 1.0% (w/v), low virus inocula
[15] = tranexamic acid 1.0% (w/v), low virus inocula, listed as tranexamic acid
[16] = tranexamic acid 2.0% (w/v), high virus inocula
[17] = 5,000 μM L-arginine alone, listed as L-arginine
[18] = 10,000 μM L-arginine alone, listed as L-arginine

N[C@@H](Cc1c[nH]cn1)C(=O)O [L-Histidine, L-histidine]
Titer (Log10TCID50/mL) ([1]; 0.5 mM L-histidine alone, contact time 48 ± 2 hours): 8.46 ± 0.09 Log10TCID50/mL and 8.76 ± 0.06 Log10TCID50/mL and 8.76 ± 0.10 Log10TCID50/mL | Log10 titer reduction (peak of replicates) ([1]; 0.5 mM L-histidine alone, vs input virus control average): 0.04 Log10 | Output Viral Titer (Log10TCID50) ([1]; 0.5 mM L-histidine, HSV-1, contact time 48 ± 2 hours, 3 replicates): 8.46 Log10TCID50 and 8.76 Log10TCID50 (2×) | Titer (Log10TCID50/mL) ([1]; 1 mM L-histidine alone, contact time 48 ± 2 hours): 8.70 ± 0.11 Log10TCID50/mL and 8.40 ± 0.11 Log10TCID50/mL | Log10 titer reduction (peak of replicates) ([1]; 1 mM L-histidine alone, vs input virus control average): 0.10 Log10 | Output Viral Titer (Log10TCID50) ([1]; 1 mM L-histidine, HSV-1, contact time 48 ± 2 hours, 3 replicates): 8.76 Log10TCID50 and 8.70 Log10TCID50 and 8.40 Log10TCID50 | Titer (Log10TCID50/mL) ([1]; 5 mM L-histidine alone, contact time 48 ± 2 hours): 8.52 ± 0.10 Log10TCID50/mL and 8.82 ± 0.08 Log10TCID50/mL and 8.64 ± 0.06 Log10TCID50/mL | Log10 Titer Reduction ([1]; 5 mM L-histidine alone, vs input virus control average): no Log10 titer reduction | Output Viral Titer (Log10TCID50) ([1]; 5 mM L-histidine, HSV-1, contact time 48 ± 2 hours, 3 replicates): 8.52 Log10TCID50 and 8.82 Log10TCID50 and 8.64 Log10TCID50 | Log10 Titer Reduction ([1]; 5 mM L-histidine, HSV-1, contact time 48 ± 2 hours, input viral titer 8.50, 3 replicates): No reduction | Titer (Log10TCID50/mL) ([1]; 10 mM L-histidine alone, contact time 48 ± 2 hours): 8.70 ± 0.00 Log10TCID50/mL and 8.64 ± 0.06 Log10TCID50/mL | Log10 Titer Reduction ([1]; 10 mM L-histidine alone, vs input virus control average): no Log10 titer reduction | Output Viral Titer (Log10TCID50) ([1]; 10 mM L-histidine, HSV-1, contact time 48 ± 2 hours, 3 replicates): 8.70 Log10TCID50 and 8.64 Log10TCID50 (2×) | Log10 Titer Reduction ([1]; 10 mM L-histidine, HSV-1, contact time 48 ± 2 hours, input viral titer 8.50, 3 replicates): No reduction | Titer (Log10TCID50/mL) ([1]; 25 mM L-histidine alone, contact time 48 ± 2 hours): 8.64 ± 0.10 Log10TCID50/mL and 8.52 ± 0.12 Log10TCID50/mL and 8.70 ± 0.00 Log10TCID50/mL

NC[C@H]1CC[C@H](C(=O)O)CC1 [Tranexamic Acid (TA)]
Output Viral Titer (Log10TCID50) ([1]; 2% (w/v) tranexamic acid, HSV-1, contact time 48 ± 2 hours, 3 replicates): 7.15 Log10TCID50 and 7.21 Log10TCID50 and 7.27 Log10TCID50 | Log10 Titer Reduction ([1]; 2% (w/v) tranexamic acid, HSV-1, contact time 48 ± 2 hours, input viral titer 8.50, 3 replicates): 1.35 Log10 and 1.29 Log10 and 1.23 Log10

NC[C@H]1CC[C@H](C(=O)O)CC1 [Tranexamic Acid, tranexamic acid]
Output Viral Titer (Log10TCID50) ([2]; 2% (w/v) tranexamic acid alone): 5.30 Log10TCID50 and 5.12 Log10TCID50 | Titer (Log10TCID50/mL) ([2]; 2% (w/v) tranexamic acid alone): 5.24 ± 0.08 Log10TCID50/mL and 5.30 ± 0.10 Log10TCID50/mL and 5.12 ± 0.10 Log10TCID50/mL | Viral Reduction (%) ([2]; 2% (w/v) tranexamic acid alone): 93% and 92% and 95% | Viral Reduction (%) [2, 8]: 95% | Log10 Titer Difference ([2]; 2% (w/v) tranexamic acid alone): −1.15 Log10 and −1.09 Log10 and −1.27 Log10 | Viral Reduction (%) ([3]; 2% (w/v) tranexamic acid alone): 99.6% and 99.7% and 99.3% | Viral Reduction (%) [3, 8]: 99.7% | Titer (Log10TCID50/mL) [1]: 7.15 ± 0.08 Log10TCID50/mL and 7.21 ± 0.06 Log10TCID50/mL and 7.27 ± 0.00 Log10TCID50/mL | Log10 titer reduction (peak of replicates) ([1]; 2% (w/v) tranexamic acid alone, vs input virus control average): 1.29 Log10 | outcome of cold sore outbreak ([4]; fourth subject, 10% (w/v) tranexamic acid topically a single time at onset): the following morning the blister was gone and the outbreak had ceased | cold sore outbreaks during the year ([4]; one subject, 3 or 10% (w/v) tranexamic acid applied to face daily for approximately one year, usual experience 3 to 5 outbreaks): one | time until cold sore had healed to only a small red spot ([4]; person, approximately 0.25 mL aqueous solution of 5% (w/v) tranexamic acid by swab, 5 times over 36 hours): ≤ 36 h | time until symptoms of the outbreak resolved ([4]; three human subjects, 3% (w/v) tranexamic acid topically several times a day from beginning of outbreak, usual duration about 2 weeks): ≤ 48 h | Output Viral Titer (Log10TCID50) [5, 9]: 6.19 Log10TCID50 and 6.43 Log10TCID50 and 6.37 Log10TCID50 | Reduction (%) [5, 9]: 45.9% | Titer (Log10TCID50/mL) [5, 9]: 6.19 ± 0.08 Log10TCID50/mL and 6.43 ± 0.13 Log10TCID50/mL and 6.37 ± 0.11 Log10TCID50/mL | Output Viral Titer (Log10TCID50) [5, 10]: 5.24 Log10TCID50 and 5.54 Log10TCID50 | Reduction (%) [5, 10]: 62.9% and 90.5% and 81.0% | Reduction (%) [5, 11]: 90.5% | Output Viral Titer (Log10TCID50) [5, 12]: 6.43 Log10TCID50 and 6.61 Log10TCID50 | Titer (Log10TCID50/mL) [5, 12]: 6.43 ± 0.12 Log10TCID50/mL and 6.61 ± 0.11 Log10TCID50/mL and 6.43 ± 0.13 Log10TCID50/mL | Reduction (%) [5, 13]: 5.9% | Output Viral Titer (Log10TCID50) [5, 14]: 4.34 Log10TCID50 | Reduction (%) [5, 14]: 97.9% and 98.8% and 75.5% | Reduction (%) [5, 15]: 98.8% | Output Viral Titer (Log10TCID50) [5, 16]: 5.71 Log10TCID50 and 5.42 Log10TCID50 | Reduction (%) [5, 16]: 82.1% and 90.8% | Titer (Log10TCID50/mL) [5, 16]: 5.71 ± 0.12 Log10TCID50/mL and 5.42 ± 0.06 Log10TCID50/mL | Reduction (%) ([5]; tranexamic acid 2.0% (w/v), high virus inocula, listed as tranexamic acid): 90.8% | Reduction (%) [6, 9]: 52.85% | Output Viral Titer (Log10TCID50) [6, 10]: 5.77 Log10TCID50 and 5.71 Log10TCID50 | Reduction (%) [6, 10]: 78.94% and 64.24% and 68.85% | Titer (Log10TCID50/mL) [6, 10]: 5.54 ± 0.09 Log10TCID50/mL and 5.77 ± 0.10 Log10TCID50/mL and 5.71 ± 0.08 Log10TCID50/mL | Reduction (%) [6, 11]: 78.94% | Output Viral Titer (Log10TCID50) [6, 12]: 7.62 Log10TCID50 and 7.44 Log10TCID50 and 7.38 Log10TCID50 | Reduction (%) [6, 12]: 37.85% and 58.94% and 64.24% | Titer (Log10TCID50/mL) [6, 12]: 7.62 ± 0.08 Log10TCID50/mL and 7.44 ± 0.11 Log10TCID50/mL and 7.38 ± 0.10 Log10TCID50/mL | Reduction (%) [6, 13]: 64.24% | Output Viral Titer (Log10TCID50) [6, 14]: 5.60 Log10TCID50 and 5.83 Log10TCID50 and 5.89 Log10TCID50 | Reduction (%) [6, 14]: 75.82% and 58.94% and 52.85% | Titer (Log10TCID50/mL) [6, 14]: 5.89 ± 0.10 Log10TCID50/mL and 5.60 ± 0.09 Log10TCID50/mL and 5.83 ± 0.08 Log10TCID50/mL | Reduction (%) [6, 15]: 75.82% | Reduction (%) [6, 16]: 99.98% and 99.85% | maximum concentration that could be used without cytotoxicity [7]: 2 % (w/v)

N=C(N)NCCC[C@H](N)C(=O)O [L-Arginine, L-arginine]
Viral Promotion (%) [2, 17]: 54% | Output Viral Titer (Log10TCID50) ([2]; 10,000 μM L-arginine alone): 7.21 Log10TCID50 and 7.09 Log10TCID50 and 7.15 Log10TCID50 | Titer (Log10TCID50/mL) ([2]; 10,000 μM L-arginine alone): 7.21 ± 0.06 Log10TCID50/mL and 7.09 ± 0.09 Log10TCID50/mL and 7.15 ± 0.08 Log10TCID50/mL | Viral Promotion (%) ([2]; 10,000 μM L-arginine alone): 85% and 80% and 83% | Viral Promotion (%) [2, 18]: 85% | Log10 Titer Difference ([2]; 10,000 μM L-arginine alone): 0.82 Log10 and 0.70 Log10 and 0.76 Log10 | Viral Promotion (%) ([2]; 25,000 μM L-arginine alone): 85% and 74% and 65% | Viral Promotion (%) ([2]; 25,000 μM L-arginine alone, listed as L-arginine): 85% | Viral Promotion (%) ([3]; 5,000 μM L-arginine alone): 44% and 76% | Viral Reduction (%) ([3]; 5,000 μM L-arginine alone): 32% | Viral Promotion (%) [3, 17]: 76% | Viral Promotion (%) [3, 18]: 76% | Viral Promotion (%) ([3]; 25,000 μM L-arginine alone): 3% | Viral Reduction (%) ([3]; 25,000 μM L-arginine alone): 66% | Log10 titer reduction (peak of replicates) ([1]; 0.5 mM L-arginine alone, vs input virus control average): 0.28 Log10 | Log10 titer reduction (peak of replicates) ([1]; 2 mM L-arginine alone, vs input virus control average): 0.04 Log10 | Log10 Titer Reduction ([1]; 5 mM L-arginine alone, vs input virus control average): no Log10 titer reduction | Log10 Titer Reduction ([1]; 5 mM L-arginine, HSV-1, contact time 48 ± 2 hours, input viral titer 8.50, 3 replicates): No reduction
